Source: patent US11124490B2, “Autotaxin inhibitors” (UNIVERSITY OF TENNESSEE RESEARCH FOUNDATION, priority 2016, dated 2021)
Values joined by “and” are separate entries in the source; they are usually repeats but may differ in a detail not shown here. Equal values may be shown once.

Tests used:
human recombinant ATX [1] = biological target: T1, human recombinant ATX (Homo sapiens (Human), UniProt Q13822); assay: ATX inhibition, hydrolysis of nucleotide substrate pNP-TMP; format: biochemical; conditions: 1 mM pNP-TMP, 4 nM ATX, compound 0 to 1 μM
Protocol: (§1) ATX Generation: Human recombinant ATX was expressed as published previously, using Sf9 Spodoptera frugiperda ovary cells (Invitrogen, Carlsbad, Calif.).^13 Suspension cells were grown to a 1 liter quantity at a concentration of 1×10^6 cells/ml in Sf-900 III serum-free medium (Invitrogen) supplemented with 50 U/ml penicillin and 50 μg/ml streptomycin at 27° C. with agitation. Cells were then infected with high-titer baculovirus generated via Bac-to-Bac Baculovirus Expression System (Invitrogen) using the pCMV5 mammalian expression vector containing the C-terminal FLAG-tagged human ATX sequence (a generous gift from Dr. Junken Aoko, ohoku University, Aoba-ku, Sendai, Japan) subcloned into the pFastBacl transfer vector. […] Resultant ATX was then concentrated via centrifugation in Amicon Ultra 30,000 molecular weight cut off filter units (Millipore, Billerica, Mass.) and subsequent buffer exchange into storage buffer comprised of 50 mM Tris, pH 7.4 with 20% (v/v) ethylene glycol. Protein was held at −80° C. for long-term storage.
(§2) ATX Inhibition: ATX activity was assessed via hydrolysis of the synthetic, lipid-like FRET-based substrate FS-3 (Echelon Biosciences, Salt Lake City, Utah) or via hydrolysis of the nucleotide substrate p-nitrophenyl thymidine 5′-monophosphate (pNP-TMP) as described previously.^2 Reaction wells were loaded in 60 μl volumes in triplicate wells of half-area, black-wall 96-well plates in assay buffer consisting of 50 mM Tris, 140 mM NaCl, 5 mM KCl, 1 mM CaCl2, 1 mM MgCl2, […] BSA, pH 8.0. […] Fluorescence was read every 2 minutes for 1 hour at excitation/emission wavelengths of 485/528 nm for FS-3 hydrolysis or 405 nm absorbance for pNP-TMP hydrolysis using a FlexStation 3 microplate reader (Molecular Devices, Sunnyvale, Calif.). Data (relative fluorescence or absorbance) were then recorded as a mean value of the triplicates for each sample versus time. […] In the case of mechanism determination, the linear fluorescence data from time 10 minutes to 30 minutes were then transformed using a carboxyfluorescein standard curve to determine product concentration and plotted separately. Linear trend lines were inserted using Microsoft Excel, the slope of which represent the rates of reaction for each substrate concentration. This reaction rate data for each inhibitor concentration were then plotted against substrate (FS-3) concentration and simultaneously fitted via non-linear regression in the Michaelis-Menten equations for competitive, non-competitive, uncompetitive, and mixed-mode inhibition using GraphPad Prism version 5.0a. Mechanism of inhibition was determined by which curve fit had the best global fit (R^2 value).

human recombinant ATX [2] = biological target: T1, human recombinant ATX; assay: ATX inhibition, hydrolysis of FRET substrate FS-3; format: biochemical; conditions: for IC50: 1 μM FS-3, 4 nM human recombinant ATX, 1 hour time point, read-out: IC50 (nM ± SD) vs FS-3
Protocol: as §1, §2

Row | Compound | pNP-TMP Inhibition (human recombinant ATX [1]) | IC50 (human recombinant ATX [2]) | fold IC50 improvement relative to screening hit 918013 (human recombinant ATX [2]) | ATX inhibitory activity (in words) (human recombinant ATX [2]) | Mechanism (human recombinant ATX [2]; mechanism of inhibition, FS-3 0 to 10 μM, inhibitor 0, 0.5×IC50 or 2×IC50)
1 | O=S(=O)(c1cc(C(=S)Nc2cc(F)c(F)c(F)c2)c(Cl)cc1Cl)N1CCOCC1 [Compound 14, 2,4-dichloro-5-(morpholinosulfonyl)-N-(3,4,5-trifluorophenyl)benzothioamide] | None | 35.3 ± 2.66 nM | three fold | – | –
2 | O=S(=O)(c1cc(CNc2cc(F)c(F)c(F)c2)c(Cl)cc1Cl)N1CCOCC1 [Compound 11, N-(2,4-dichloro-5-(morpholinosulfonyl)benzyl)-3,4,5-trifluoroaniline] | None | 396 ± 44.1 nM | – | – | –
3 | O=S(=O)(Nc1cc(S(=O)(=O)N2CCOCC2)c(Cl)cc1Cl)c1cccc(F)c1 [Compound 19] | None | > 1000 nM | – | – | –
4 | O=S(=O)(c1cc(C(=S)Nc2cc(Cl)c(F)c(Cl)c2)c(Cl)cc1Cl)N1CCOCC1 [Compound 15, 2,4-dichloro-N-(3,5-dichloro-4-fluorophenyl)-5-(morpholinosulfonyl)-benzothioamide] | None | 83.1 ± 9.77 nM | – | – | –
5 | CN(C(=O)c1cc(S(=O)(=O)N2CCOCC2)c(Cl)cc1Cl)c1cccc(F)c1 [Compound 9, 2,4-dichloro-N-(3-fluorophenyl)-N-methyl-5-(morpholinosulfonyl)benzamide] | – | – | – | low activity | –
6 | O=S(=O)(c1cc(N(S(=O)(=O)c2cccc(F)c2)S(=O)(=O)c2cccc(F)c2)c(Cl)cc1Cl)N1CCOCC1 [Compound 20] | None | > 1000 nM | – | – | –
7 | O=S(=O)(c1cc(C(=S)Nc2cccc(F)c2)c(Cl)cc1Cl)N1CCOCC1 [Compound 12, 2,4-dichloro-N-(3-fluorophenyl)-5-(morpholinosulfonyl)benzothioamide] | None | 121.5 ± 1.02 nM | – | – | –
8 | O=S(=O)(c1cc(C(=S)Nc2ccc(F)c(F)c2)c(Cl)cc1Cl)N1CCOCC1 [Compound 13, 2,4-dichloro-N-(3,4-difluorophenyl)-5-(morpholinosulfonyl)benzothioamide] | None | 67.3 ± 9.73 nM | – | – | –
9 | O=C(Nc1cc(F)c(F)c(F)c1)c1cc(NN2CCOCC2)c(Cl)cc1Cl [Compound 25, 2,4-dichloro-5-(morpholinoamino)-N-(3,4,5-trifluorophenyl)benzamide] | None | > 1000 nM | – | inactive | –
10 | O=S(=O)(Nc1cc(F)c(F)c(F)c1)c1cc(S(=O)(=O)N2CCOCC2)c(Cl)cc1Cl [Compound 23, 2,4-dichloro-5-(morpholinosulfonyl)-N-(3,4,5-trifluorophenyl)benzenesulfonamide] | None | > 1000 nM | – | – | –
11 | O=S(=O)(c1cc(-c2nc3cc(F)c(F)cc3[nH]2)c(Cl)cc1Cl)N1CCOCC1 [Compound 8, 4-((2,4-dichloro-5-(5,6-difluoro-1H-benzo[d]imidazol-2-yl)phenyl)sulfonyl)-morpholine] | – | – | – | inactive | –
12 | O=C(Nc1cc(F)c(F)c(F)c1Br)c1cc(S(=O)(=O)N2CCOCC2)c(Cl)cc1Cl [Compound 5, N-(2-bromo-3,4,5-trifluorophenyl)-2,4-dichloro-5-(morpholinosulfonyl)benzamide] | – | – | seven fold | strong ATX inhibition | –
13 | O=C(Nc1cc(F)c(C(=O)O)c(F)c1)c1cc(S(=O)(=O)N2CCOCC2)c(Cl)cc1Cl [Compound 4, 4-(2,4-dichloro-5-(morpholinosulfonyl)benzamido)-2,6-difluorobenzoic Acid] | None | > 1000 nM | – | relatively inactive | –
14 | O=S(=O)(Nc1cccc(F)c1)c1cc(S(=O)(=O)N2CCOCC2)c(Cl)cc1Cl [Compound 22, 2,4-dichloro-N-(3-fluorophenyl)-5-(morpholinosulfonyl)benzenesulfonamide] | None | > 1000 nM | – | – | –
15 | O=S(=O)(c1cc(CNc2ccc(F)c(F)c2)c(Cl)cc1Cl)N1CCOCC1 [Compound 10, N-(2,4-dichloro-5-(morpholinosulfonyl)benzyl)-3,4-difluoroaniline] | None | – | – | greatly deteriorated | –
16 | O=S(=O)(c1cc(-c2nc3cccc(F)c3o2)c(Cl)cc1Cl)N1CCOCC1 [Compound 7, 2-(2,4-dichloro-5-(morpholinosulfonyl)phenyl)-7-fluorobenzo[d]oxazole] | – | – | – | inactive | –
17 | CN1CCN(S(=O)(=O)c2cc(C(=S)Nc3cc(Cl)c(F)c(Cl)c3)c(Cl)cc2Cl)CC1 [Compound 29, 2,4-dichloro-N-(3,5-dichloro-4-fluorophenyl)-5-((4-methylpiperazin-1-yl)sulfonyl)-benzothioamide] | None | 100 ± 8.11 nM | – | – | –
18 | O=C(Nc1cccc(F)c1)c1cc(S(=O)(=O)N2CCOCC2)c(Cl)cc1Cl [Compound 918013, 2,4-dichloro-N-(3-fluorophenyl)-5-(morpholinosulfonyl)benzamide, reference compound] | None | 117 ± 1.97 nM | – | – | Competitive

Further lines, results first:

Row | pNP-TMP Inhibition (human recombinant ATX [1]) | IC50 (human recombinant ATX [2]) | fold IC50 improvement relative to screening hit 918013 (human recombinant ATX [2]) | ATX inhibitory activity (in words) (human recombinant ATX [2]) | Mechanism (human recombinant ATX [2]; mechanism of inhibition, FS-3 0 to 10 μM, inhibitor 0, 0.5×IC50 or 2×IC50) | Compound
19 | None | 190 ± 13.1 nM | – | – | – | N#Cc1c(F)cc(NC(=O)c2cc(S(=O)(=O)N3CCOCC3)c(Cl)cc2Cl)cc1F [Compound 3h, 2,4-dichloro-N-(4-cyano-3,5-difluorophenyl)-5-(morpholinosulfonyl)benzamide]
20 | None | > 1000 nM | – | inactive | – | CS(=O)(=O)N(C(=O)c1cc(NN2CCOCC2)c(Cl)cc1Cl)c1cc(F)c(F)c(F)c1 [Compound 26a, 2,4-dichloro-N-(methylsulfonyl)-5-(morpholinoamino)-N-(3,4,5-trifluorophenyl)-benzamide]
21 | None | 66 nM and 66.9 nM | – | – | – | CN1CCN(S(=O)(=O)c2cc(C(=O)Nc3cc(F)c(F)c(F)c3)c(Cl)cc2Cl)CC1 [Compound 28a, 2,4-dichloro-5-((4-methylpiperazin-1-yl)sulfonyl)-N-(3,4,5-trifluorophenyl)-benzamide]
22 | None | > 1000 nM | – | poorly active | – | O=C(Nc1cc(Cl)c(Cl)c(Cl)c1)c1cc(S(=O)(=O)N2CCOCC2)c(Cl)cc1Cl [Compound 3d, 2,4-dichloro-5-(morpholinosulfonyl)-N-(3,4,5-trichlorophenyl)benzamide]
23 | None | 55 nM and 55.5 nM | – | – | – | CN1CCN(S(=O)(=O)c2cc(C(=O)Nc3cc(Cl)c(F)c(Cl)c3)c(Cl)cc2Cl)CC1 [Compound 28b, 2,4-dichloro-N-(3,5-dichloro-4-fluorophenyl)-5-((4-methylpiperazin-1-yl)sulfonyl)benzamide]
24 | None | 1030 nM | – | poorly active | – | O=C(Nc1c(F)c(F)c(F)c(F)c1F)c1cc(S(=O)(=O)N2CCOCC2)c(Cl)cc1Cl [Compound 3c, 2,4-dichloro-5-(morpholinosulfonyl)-N-(perfluorophenyl)benzamide]
25 | None | 864 ± 51.9 nM | – | – | – | COC(=O)c1c(F)cc(NC(=O)c2cc(S(=O)(=O)N3CCOCC3)c(Cl)cc2Cl)cc1F [Compound 3i, Methyl 4-(2,4-dichloro-5-(morpholinosulfonyl)benzamido)-2,6-difluorobenzoate]
